From US7259188B2, “Methods and pharmaceutical compositions for treatment of anti-estrogen resistant breast cancer using RXR modulators” (priority 1998, dated 2007)
Where two headings read alike, the source gives them in different places.

Columns and labels:
[1] = molecular target: T1, RXRβ (UniProt P28704); format: cell-based
T1 sequence (P28704 1-520): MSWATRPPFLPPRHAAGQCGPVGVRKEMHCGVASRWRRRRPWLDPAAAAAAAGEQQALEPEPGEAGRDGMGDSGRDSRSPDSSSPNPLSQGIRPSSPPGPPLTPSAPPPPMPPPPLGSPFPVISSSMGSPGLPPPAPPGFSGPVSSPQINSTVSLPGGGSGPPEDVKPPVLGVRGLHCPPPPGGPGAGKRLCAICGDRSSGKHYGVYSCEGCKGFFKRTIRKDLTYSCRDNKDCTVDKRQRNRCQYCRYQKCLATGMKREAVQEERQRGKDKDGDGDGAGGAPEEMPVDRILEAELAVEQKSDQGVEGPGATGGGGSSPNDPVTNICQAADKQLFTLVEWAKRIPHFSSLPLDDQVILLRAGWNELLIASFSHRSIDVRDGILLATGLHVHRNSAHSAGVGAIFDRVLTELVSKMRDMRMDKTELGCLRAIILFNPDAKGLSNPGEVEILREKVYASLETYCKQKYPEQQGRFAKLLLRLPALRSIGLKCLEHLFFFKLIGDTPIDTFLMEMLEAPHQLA
Description: Briefly, the co-transfection assay involves the introduction of two plasmids by transient transfection into a retinoid receptor-negative mammalian cell background. The first plasmid contains a retinoid receptor cDNA and directs constitutive expression of the encoded receptor. The second plasmid contains a cDNA that encodes for a readily quantifiable protein, e.g., firefly luciferase or chloramphenicol acetyl transferase (CAT), under control of a promoter containing a retinoid acid response element, which confers retinoid dependence on the transcription of the reporter. […] This assay can be used to accurately measure efficacy and potency of retinoic acid and synthetic retinoids as ligands that interact with the individual retinoid receptor subtypes.

[2] = test system: established mammary tumors; experiment: Example 3: established NMU-induced mammary tumors, six weeks of treatment; format: in vivo, Sprague-Dawley rats; settings: for tumors completely regressed / tumors continued to progress / tumors partially regressed: LGD1069 100 mg/kg or tamoxifen 800 μg/kg
Experimental: (§1) Mammary tumorigenesis was induced by administration of 50 mg/kg of N-nitroso-N-methylurea (NMU) (Sigma, St. Louis, Mo.) to 50 day old virgin female Sprague-Dawley rats (Harlan-SD, Indianapolis, Ind.). NMU was formulated as an aqueous solution of 10 mg/ml by wetting NMU powder with 3% acetic acid and dissolving it in sterile saline. Fresh solutions of NMU were injected within 30 minutes of preparation. The animals were injected in the tail vein with 5 mg NMU/100 g body weight. Rats were housed in a USDA registered facility in accordance with NIH guidelines for the care and use of laboratory animals. […] Beginning five weeks after tumor induction, animals were examined for tumors twice a week. Tumors were measured with electronic calipers (Mitushoyo, Japan) and cross sectional areas were determined by multiplying the longest length of the tumor by the greatest perpendicular width of the tumor.

[3] = test system: primary mammary tumors; experiment: Example 4: NMU-induced mammary tumors, submaximally efficacious doses alone and coadministered; format: in vivo, Sprague-Dawley rats; settings: for primary mammary tumors regressed: single agent at submaximally efficacious dose: LGD1069 10 mg/kg, tamoxifen 150 mg/kg
Experimental: as §1, with “NMU was formulated as an aqueous solution of 10 mg/ml by wetting NMU powder with 3% acetic acid and dissolving it in sterile saline.” left out

[4] = test system: estrogen receptor positive breast cancers; settings: patients, tamoxifen treatment; cited from earlier work
[5] = test system: tamoxifen-resistant primary tumors; experiment: Example 1: tumor response of tamoxifen-resistant NMU-induced mammary tumors; format: in vivo, Sprague-Dawley rats; settings: additional six weeks; for combined response of partial or complete regression / incidence of progressive disease / complete regression of tumors: LGD1069 100 mg/kg orally daily added to tamoxifen 800 μg/kg sc daily, versus tamoxifen alone; for complete regression of tumors: p<0.05
Experimental: as §1, with “NMU was formulated as an aqueous solution of 10 mg/ml by wetting NMU powder with 3% acetic acid and dissolving it in sterile saline.” left out

[6] = test system: tumors that grew in the presence of the low-dose tamoxifen; experiment: Example 2: NMU-induced tumors that grew in the presence of low-dose tamoxifen; settings: LGD1069 100 mg/kg PO added to low-dose tamoxifen therapy, compared to treatment with tamoxifen (800 μg/kg SC)
[7] = test system: mammary carcinoma development; settings: NMU-treated rat, compared with tamoxifen; cited from earlier work

For `Cc1cc2c(cc1/C(=N/O)c1ccc(C(=O)O)cc1)C(C)(C)CCC2(C)C` [LDG100324], the Efficacy [1] was 51% and the EC50 ([1]; read-out: Potency) was 8 nM.
For `CC/C(=C(\c1ccccc1)c1ccc(OCCN(C)C)cc1)c1ccccc1` [tamoxifen, reference compound], the tumors completely regressed ([2]; daily for six weeks) was 33.3%, the “tumors continued to progress” value ([2]; daily for six weeks) was 28.6% and the tumors partially regressed ([2]; daily for six weeks) was 33.3%. For the same molecule, the tumors remained static ([2]; daily for six weeks, tamoxifen 800 μg/kg) was 4.8%, the “primary mammary tumors regressed” value [3] was 5.6% and the “estrogen receptor positive breast cancers that respond to treatment” value [4] was “approximately 66%”. The “combined response of partial or complete regression” value [5] was 44%, the “incidence of progressive disease” value [5] was 44% and the “complete regression of tumors” value [5] was 16.7%.
`CC1=C(/C=C/C(C)=C\C=C\C(C)=C\C(=O)O)C(C)(C)CCC1` [9-cis-retinoic acid, reference compound] gave an Efficacy ([1]; RXRβ, co-transfection assay) of 140%.
In the case of `C=C(c1ccc(C(=O)O)cc1)c1cc2c(cc1C)C(C)(C)CCC2(C)C` [LGD1069], the “amount of progressive disease” value [6] is listed as “significantly reduced the amount of progressive disease”, the “inhibiting mammary carcinoma development (chemopreventive)” value [7] is listed as “as effective as the anti-estrogen tamoxifen” and the “antitumor efficacy on established mammary tumors” value ([2]; LGD1069 100 mg/kg daily for six weeks, compared with tamoxifen 800 μg/kg) is listed as “greater efficacy than treatment with tamoxifen”. For the same molecule, the tumors completely regressed ([2]; daily for six weeks) was 72.2%, the “tumors continued to progress” value ([2]; daily for six weeks) was 11.1% and the tumors partially regressed ([2]; daily for six weeks) was 16.7%. For the same molecule, the tumors completely regressing ([3]; LGD1069 10 mg/kg coadministered with tamoxifen 150 mg/kg) was 26.3%, the “primary mammary tumors regressed” value [3] was 10.5% and the “combined response of partial or complete regression” value [5] was “more than 90%”. The “incidence of progressive disease” value [5] was 3%, the “complete regression of tumors” value [5] was 56% and the “incidence of stable disease” value ([5]; LGD1069 100 mg/kg orally daily added to tamoxifen, compared with tamoxifen alone) was “reduced the incidence”.
